The numbers were not newly measured in patent US20220273570A1, “Self-Microemulsifying Multi-Deliverable Systems” (Quicksilver Scientific, Inc., priority 2019, published 2022), which cites them from elsewhere.

For series [1] the following is noted: up to.
For series [2], the system named is human hepatoma cell line (HepG2).
For series [3] the following is noted: rats, oral.
The conditions of series [4]: oral; extensively metabolized into glucuronide conjugate.

Each structure is given as a SMILES string. Where two headings read alike, the source gives them in different places.

On to `C[C@]12CC[C@H](O)CC1=CC[C@@H]1[C@@H]2CC[C@]2(C)C(=O)CC[C@@H]12` [DHEA], for which the “solubility in MCT oil” value in series [1] (MCT oil) is “approximately 10 mg/mL”. In addition, in series [1] (ethanol), the solubility in ethanol result is on record as “approximately 150 mg/mL”. On to `COc1cc(/C=C/C(=O)CC(=O)/C=C/c2ccc(O[C@@H]3O[C@H](C(=O)O)[C@@H](O)[C@H](O)[C@H]3O)c(OC)c2)ccc1O` [curcumin-glucuronide], for which the “effects on gene expression compared with free curcumin” value in series [2] is listed as “weaker”. Regarding `COc1cc(/C=C/C(=O)CC(=O)/C=C/c2ccc(O)c(OC)c2)ccc1O` [curcumin], in series [3], the “bioavailability of orally administered solid curcumin powder” value is given as 1%. As to `O=c1c(O)c(-c2ccc(O)c(O)c2)oc2cc(O)cc(O)c12` [quercetin], the elimination half-life (after oral ingestion of quercetin containing foods or supplements) was 1 to 2 h. Besides, the bioavailability (humans, low and highly variable) is recorded as 0-50%.

`Oc1ccc(/C=C/c2cc(O)cc(O)c2)cc1` [resveratrol, 3,5,4′-trihydroxy-trans-stilbene]: the bioavailability result in series [4] was “about 0.5%”.
